Assay results reported in patent publication US9580726B2, “Tomato plants comprising transgenic event Bs2-X5” (priority 2013, dated 2017).
Where a name gives a salt, the structure may show the parent alone. Read-outs that look alike come from different tables or passages of the source.

Assays:
[1] = system: bacterial spot disease on tomato; conditions: cited from earlier work
[2] = system: Xanthomonas bacterial isolates; format: cell-based, Xanthomonas perforans; conditions: 200 μg/ml, 3 days
Description: The bacterial isolates were also tested for sensitivity to the bactericides, streptomycin and copper using established procedures. All strains were tested for growth on media with either streptomycin sulfate (200 μg/ml) or copper sulfate (pentahydrate) 200 μg/ml (0.8 mM)) after 3 days, [38].

[3] = Collier, zone III, Florida 47, 20 strains isolated (r19)
[4] = Collier, zone III, Grape, 18 strains isolated (r22)
[5] = Collier, zone III, Grape, 20 strains isolated (r21)
[6] = Collier, zone III, Large Fruit, 19 strains isolated (r23)
[7] = Collier, zone III, Roma, 20 strains isolated (r20)
[8] = Decatur, GA, zone V, Large Fruit, 19 strains isolated (r39)
[9] = Decatur, GA, zone V, Large Fruit, 20 strains isolated (r41)
[10] = Decatur, GA, zone V, Large Fruit, 20 strains isolated (r43)
[11] = Gadsden, zone V, Large Fruit, 19 strains isolated (r37)
[12] = Gadsden, zone V, Large Fruit, 20 strains isolated (r35)
[13] = Manatee, zone IV, Large Fruit, 20 strains isolated (r25)
[14] = Manatee, zone IV, Large Fruit, 20 strains isolated (r27)
[15] = Manatee, zone IV, Large Fruit, 20 strains isolated (r29)
[16] = Manatee, zone IV, Large Fruit, 20 strains isolated (r31)
[17] = Manatee, zone IV, Large Fruit, 20 strains isolated (r33)
[18] = Miami Dade, zone I, Large Fruit, 13 strains isolated (r13)
[19] = Miami Dade, zone I, Large Fruit, 15 strains isolated (r9)
[20] = Miami Dade, zone I, Large Fruit, 20 strains isolated (r11)
[21] = Miami Dade, zone I, Plum, 20 strains isolated (r15)
[22] = Palm Beach, zone II, Heirloom varieties, 14 strains isolated (r17)
[23] = Totals, 377 strains isolated (r45)

| Structure (SMILES) | Bactericide Resistance: number of resistant strains [2, 3] | Bactericide Resistance: number of resistant strains [2, 4] | Bactericide Resistance: number of resistant strains [2, 5] | Bactericide Resistance: number of resistant strains [2, 6] | Bactericide Resistance: number of resistant strains [2, 7] | Bactericide Resistance: number of resistant strains [2, 8] | Bactericide Resistance: number of resistant strains [2, 9] | Bactericide Resistance: number of resistant strains [2, 10] | Bactericide Resistance: number of resistant strains [2, 11] | Bactericide Resistance: number of resistant strains [2, 12] | Bactericide Resistance: number of resistant strains [2, 13] | Bactericide Resistance: number of resistant strains [2, 14] | Bactericide Resistance: number of resistant strains [2, 15] | Bactericide Resistance: number of resistant strains [2, 16] | Bactericide Resistance: number of resistant strains [2, 17] | Bactericide Resistance: number of resistant strains [2, 18] | Bactericide Resistance: number of resistant strains [2, 19] | Bactericide Resistance: number of resistant strains [2, 20] | Bactericide Resistance: number of resistant strains [2, 21] | Bactericide Resistance: number of resistant strains [2, 22] | further results |
| --- | --- | --- | --- | --- | --- | --- | --- | --- | --- | --- | --- | --- | --- | --- | --- | --- | --- | --- | --- | --- | --- |
| [Cu+2].[OH-].[OH-] [Copper hydroxide] |  |  |  |  |  |  |  |  |  |  |  |  |  |  |  |  |  |  |  |  | Significant difference between treatment and untreated control: Foliar Rating ([1]; 2008, TN, Ref [3]): No; Significant difference between treatment and untreated control: Marketable Yield ([1]; 2008, TN, Ref [3]): No; Significant difference between treatment and untreated control: AUDPC ([1]; 2009, OH, Ref [4]): No; Significant difference between treatment and untreated control: Marketable Yield ([1]; 2009, OH, Ref [4]): No; Significant difference between treatment and untreated control: Foliar Rating ([1]; 2009, OH, Ref [4], foliar symptoms lower on copper treated plots, fruit symptoms not): Yes^f; Significant difference between treatment and untreated control: AUDPC ([1]; 2010, FL, Ref [6]): Yes^h; Significant difference between treatment and untreated control: Foliar Rating ([1]; 2010, FL, Ref [6]): No^h; Significant difference between treatment and untreated control: Marketable Yield ([1]; 2010, FL, Ref [6]): No |
| O.O.O.O.O.O=S(=O)([O-])[O-].[Cu+2] [Cu, copper sulfate (pentahydrate)] | 20 | 14 | 20 | 19 | 20 | 19 | 20 | 20 | 19 | 20 | 20 | 20 | 20 | 20 | 20 | 13 | 15 | 20 | 20 | 14 | Bactericide Resistance: number of resistant strains [2, 23]: 377; Bactericide Resistance: number of resistant strains ([2]; Totals, 377 strains isolated (r45), listed as copper): all current field strains were found to be resistant |
| [H]/N=C(/N)N[C@H]1[C@H](O)[C@@H](O)[C@H](O[C@@H]2O[C@@H](C)[C@](O)(C=O)[C@H]2O[C@@H]2O[C@@H](CO)[C@H](O)[C@@H](O)[C@@H]2NC)[C@@H](N/C(N)=N\[H])[C@@H]1O [St, streptomycin sulfate] | 0 | 0 | 0 | 0 | 0 | 0 | 0 | 0 | 0 | 0 | 0 | 0 | 0 | 1 | 0 | 0 | 0 | 19 | 0 | 0 | Bactericide Resistance: number of resistant strains [2, 23]: 20; Bactericide Resistance: number of resistant strains ([2]; Totals, 377 strains isolated (r45), listed as streptomycin): streptomycin resistant strains were found in two of our survey collection areas |
